Data: article PMC7352759, “S(+)-(2E)-N-(2-Hydroxypropyl)-3-Phenylprop-2-Enamide (KM-568): A Novel Cinnamamide Derivative with Anticonvulsant Activity in Animal Models of Seizures and Epilepsy” (International Journal of Molecular Sciences, 2020)

What was measured:
[1] = Ames microplate format (MPF) assay, TA98; conditions: Salmonella typhimurium
Excerpt: (§1) The Ames microplate format (MPF) mutagenicity assay (Xenometrix, Allschwil, Switzerland) was used to test KM-568 mutagenicity. Growth, exposure, and indicator media, positive control chemicals, and four Salmonella typhimurium strains TA98, TA100, TA1535 and TA1537 were included in the kit. TA100 and TA1535 strains detect base substitution mutations, whereas TA98 and TA1537 indicate frameshift mutations. The strains of bacteria included in a kit are in compliance with the Organization for Economic Cooperation and Development (OECD) 471 Guideline for Testing of Chemicals.
(§2) The assay is a liquid microplate modification of the traditional Salmonella test. During the procedure, bacteria are exposed to different concentrations of a test compound for 90 min in a medium containing sufficient histidine to support cell divisions. Then, the cultures are diluted in a pH indicator medium lacking histidine and aliquoted into 48 wells of a 384-well plate. Within 2 days, bacteria that have undergone reversion to amino acid prototrophy will form colonies. Products of bacteria metabolism reduce pH of the medium, changing the color of wells from purple to yellow.
(§3) The test procedure provided by Xenometrix and described in detail elsewhere was followed. Bacterial strains were grown overnight (14–16 h) in exposure medium in a shaker incubator and then exposed to KM-568 in 24-well plates for 90 min at 37 °C with agitation. Final KM-568 concentrations in the assay were 0.1, 0.2, and 0.5 mM. After preincubation, the cultures were diluted in the indicator medium and the contents of each 24-well culture were transferred to 48 wells on a 384-well plate and incubated further for 48 h at 37 °C without agitation. After the exposure, the number of wells containing bacteria was scored for yellow wells. […] Pure DMSO was used as a negative control. All doses were performed in triplicate.
(§4) The fold increase of revertants relative to the solvent control was determined by dividing the mean number of positive wells at each dose by the solvent control at baseline. The solvent control at baseline was calculated as the mean number of positive wells in the solvent control plus one standard deviation (SD). When an increase of more than twofold relative to the baseline at more than one dose with a dose–response was observed, the sample was classified as positive, whereas when no response > 2 times the baseline and no dose–response was stated, the sample was classified as negative.

[2] = Ames microplate format (MPF) assay, TA1537; conditions: Salmonella typhimurium
Excerpt: as §1, §2, §3, §4

[3] = tested on: Salmonella typhimurium TA1535; test: Ames microplate format (MPF) assay, TA1535; conditions: TA1535, positive control at 100 µg/mL
Excerpt: as §1, §2, §3, §4

mice [4] = conditions: mice i.p.; cited from earlier work
mice [5] = conditions: mice i.p.; cited from earlier work; remark: listed apart in the source
rats = tested on: rats; design: method as in doi:10.2174/157018012798192982; conditions: rats p.o.; cited from earlier work

SMILES	scMET ED50 (mice [4]) [mg/kg]	MES ED50 (mice [5]) [mg/kg]	further results
O=[N+]([O-])c1ccc2c(c1)Cc1ccccc1-2 [2-NF, 2-nitrofluorene, reference compound]	–	–	fold induction at 90 min, 2 µg/mL [1]: 6.4
Nc1c2ccccc2nc2ccccc12 [9-AAc, 9-aminoacridine, reference compound]	–	–	fold induction at 90 min, 15 µg/mL [2]: 48
NNc1ccn([C@@H]2O[C@H](CO)[C@@H](O)[C@H]2O)c(=O)n1 [N4-ACT, N-4-aminocytidine, reference compound]	–	–	fold induction of the number of positive wells over baseline [3]: 14.7 fold
O=C(/C=C/c1ccccc1)N1CCCC(O)C1 (stereo not drawn) [R,S-(2E)-1-(3-hydroxypiperidin-1-yl)-3-phenylprop-2-en-1-one]	82.3	55.0	–
CC(O)CNC(=O)/C=C/c1ccc(Cl)cc1 (stereo not drawn) [R,S-(2E)-3-(4-chlorophenyl)-N-(2-hydroxypropyl)prop-2-enamide]	102.2	55.6	–
CC(O)CNC(=O)/C=C/c1ccccc1 (stereo not drawn) [R,S-(2E)-N-(2-hydroxypropyl)-3-phenylprop-2-enamide]	–	–	scMET (pharmacological parameter, ED50) (mice [4]): 77.1 mg/kg; MES (pharmacological parameter, ED50) (mice [5]): 47.1 mg/kg; MES (pharmacological parameter, ED50) (rats): 22.8 mg/kg
Cc1ccccc1/C=C/C(=O)N[C@@H](C)CO [S-(2E)-N-(1-hydroxypropan-2-yl)-3-(2-methylphenyl)prop-2-enamide]	58.4	42.6	–
